# Data from ChEMBL document CHEMBL1201862, “PubChem BioAssay data set” (2004).
#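 Cultured in 96-well plates, cells were exposed to test compound for 48 hours across five concentrations. GI50 = concentration required for 50% inhibition of growth.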 Activity calls are given as the source filed them. No stated cut-off is given here; in the data, active = GI50 up to about 1.1 µM and inactive = higher.
# Columns and labels:
# Experiment in all cases: DTP human tumour cell line panel, 48 h
# SK-MEL-28 = test system: SK-MEL-28
# HL-60 = test system: HL-60
# MDA-MB-231 = test system: MDA-MB-231
# Hs-578T = test system: Hs-578T
# SNB-75 = test system: SNB-75
# MOLT-4 = test system: MOLT-4
# HOP-62 = test system: HOP-62
# OVCAR-5 = test system: OVCAR-5
# CCRF-CEM = test system: CCRF-CEM
# LOX IMVI = test system: LOX IMVI
# HOP-92 = test system: HOP-92
# 786-0 = test system: 786-0
# A498 = test system: A498
# HCT-116 = test system: HCT-116
# KM12 = test system: KM12
# OVCAR-8 = test system: OVCAR-8
# COLO 205 = test system: COLO 205
# PC-3 = test system: PC-3
# U-251 = test system: U-251
# T47D = test system: T47D
# UACC-257 = test system: UACC-257
# SK-OV-3 = test system: SK-OV-3
# NCI-H23 = test system: NCI-H23
# IGROV-1 = test system: IGROV-1
# CAKI-1 = test system: CAKI-1
# SN12C = test system: SN12C
# OVCAR-3 = test system: OVCAR-3
# HCT-15 = test system: HCT-15
# NCI-H522 = test system: NCI-H522
# HCC 2998 = test system: HCC 2998
# MDA-N = test system: MDA-N
# A549 = test system: A549
# M14 = test system: M14
# NCI-H226 = test system: NCI-H226
# UACC-62 = test system: UACC-62
# RXF 393 = test system: RXF 393
# HT-29 = test system: HT-29
# SR = test system: SR
# MCF7 = test system: MCF7
# EKVX = test system: EKVX
# NCI/ADR-RES = test system: NCI/ADR-RES
# RPMI-8226 = test system: RPMI-8226
# UO-31 = test system: UO-31
# SNB-19 = test system: SNB-19
# SW-620 = test system: SW-620
# TK-10 = test system: TK-10
# MDA-MB-435 = test system: MDA-MB-435
# SF-539 = test system: SF-539
# SK-MEL-2 = test system: SK-MEL-2
# SF-295 = test system: SF-295
# OVCAR-4 = test system: OVCAR-4
# SF-268 = test system: SF-268
# SK-MEL-5 = test system: SK-MEL-5
# DU-145 = test system: DU-145
# Malme-3M = test system: Malme-3M
# BT-549 = test system: BT-549
structure (smiles),measurement,setting,value
O=C(/C=C/C=C/c1ccccc1)CCc1ccccc1,GI50,SK-MEL-28,> 10 µM (inactive)
same,GI50,HL-60,23.4 µM (inactive)
same,GI50,MDA-MB-231,> 100 µM (inactive)
same,GI50,Hs-578T,75.9 µM (inactive)
same,GI50,SNB-75,> 100 µM (inactive)
same,GI50,MOLT-4,21 µM (inactive)
same,GI50,HOP-62,> 100 µM (inactive)
same,GI50,OVCAR-5,> 100 µM (inactive)
same,GI50,CCRF-CEM,35.2 µM (inactive)
same,GI50,LOX IMVI,79.4 µM (inactive)
same,GI50,HOP-92,> 100 µM (inactive)
same,GI50,786-0,> 100 µM (inactive)
same,GI50,A498,> 100 µM (inactive)
same,GI50,HCT-116,40.7 µM (inactive)
same,GI50,KM12,22.1 µM (inactive)
same,GI50,OVCAR-8,73.8 µM (inactive)
same,GI50,COLO 205,> 100 µM (inactive)
same,GI50,PC-3,83 µM (inactive)
same,GI50,U-251,61 µM (inactive)
same,GI50,T47D,53.3 µM (inactive)
same,GI50,UACC-257,> 100 µM (inactive)
same,GI50,SK-OV-3,> 100 µM (inactive)
same,GI50,NCI-H23,63.7 µM (inactive)
same,GI50,IGROV-1,> 100 µM (inactive)
same,GI50,CAKI-1,> 100 µM (inactive)
same,GI50,SN12C,> 100 µM (inactive)
same,GI50,OVCAR-3,> 100 µM (inactive)
same,GI50,HCT-15,94.4 µM
same,GI50,NCI-H522,50.2 µM (inactive)
same,GI50,HCC 2998,> 100 µM (inactive)
same,GI50,MDA-N,> 100 µM (inactive)
same,GI50,A549,> 100 µM (inactive)
same,GI50,M14,> 100 µM (inactive)
same,GI50,NCI-H226,> 100 µM (inactive)
same,GI50,UACC-62,> 100 µM (inactive)
same,GI50,RXF 393,> 100 µM (inactive)
same,GI50,HT-29,69.7 µM (inactive)
same,GI50,SR,20.3 µM (inactive)
same,GI50,MCF7,> 100 µM (inactive)
same,GI50,EKVX,> 100 µM (inactive)
same,GI50,NCI/ADR-RES,68.5 µM (inactive)
same,GI50,RPMI-8226,> 10 µM (inactive)
same,GI50,UO-31,90.6 µM (inactive)
same,GI50,SNB-19,62.1 µM (inactive)
same,GI50,SW-620,37.6 µM (inactive)
same,GI50,TK-10,> 100 µM (inactive)
same,GI50,MDA-MB-435,72.6 µM (inactive)
same,GI50,SF-539,> 100 µM (inactive)
same,GI50,SK-MEL-2,> 100 µM (inactive)
same,GI50,SF-295,> 100 µM (inactive)
same,GI50,OVCAR-4,70.3 µM (inactive)
same,GI50,SF-268,85.1 µM (inactive)
same,GI50,SK-MEL-5,> 100 µM (inactive)
same,GI50,DU-145,> 100 µM (inactive)
same,GI50,Malme-3M,> 100 µM (inactive)
same,GI50,BT-549,> 100 µM (inactive)
